Source: paper PMC5831858, “Pharmacological characterisation of CR6086, a potent prostaglandin E2 receptor 4 antagonist, as a new potential disease-modifying anti-rheumatic drug” (Arthritis Research & Therapy, 2018)
Marks after values point to notes of the source that are not given here.

Tests used:
[1] = target: MT1 (ML1A) (Homo sapiens, UniProt P48039); test: MT1 receptor binding; settings: [^125I]2-iodomelatonin, Human recombinant CHO cells, read-out: CR6086 Activity at 10µM
[2] = target: T1, COX-1 (Homo sapiens, UniProt P23219); test: Cyclooxygenase COX-1 enzymatic activity; type: biochemical; settings: Sf9 cells, read-out: CR6086 Activity at 10µM
T1 construct: host or cells: Sf9 cells
T1 sequence (P23219 24-599): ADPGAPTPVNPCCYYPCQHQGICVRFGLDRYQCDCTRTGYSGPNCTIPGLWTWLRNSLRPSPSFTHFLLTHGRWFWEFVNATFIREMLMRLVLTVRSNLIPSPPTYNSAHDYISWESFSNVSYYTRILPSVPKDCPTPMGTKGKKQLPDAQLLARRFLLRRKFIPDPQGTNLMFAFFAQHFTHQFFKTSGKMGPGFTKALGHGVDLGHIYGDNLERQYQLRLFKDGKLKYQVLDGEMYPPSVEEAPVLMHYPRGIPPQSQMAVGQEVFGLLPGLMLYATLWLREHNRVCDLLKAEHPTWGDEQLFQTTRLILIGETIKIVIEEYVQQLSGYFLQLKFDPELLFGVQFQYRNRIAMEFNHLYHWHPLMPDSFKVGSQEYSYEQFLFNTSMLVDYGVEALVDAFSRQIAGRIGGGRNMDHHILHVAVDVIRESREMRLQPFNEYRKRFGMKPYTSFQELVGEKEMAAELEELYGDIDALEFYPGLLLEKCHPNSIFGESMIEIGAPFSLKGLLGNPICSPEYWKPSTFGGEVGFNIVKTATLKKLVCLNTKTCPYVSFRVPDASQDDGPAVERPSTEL

[3] = target: D2S (Homo sapiens, UniProt P14416); test: Dopamine receptor D2S binding; settings: [^3H]methyl-spiperone, Human recombinant HEK-293 cells, read-out: CR6086 Activity at 10µM
Sequence of D2S (P14416 1-414 isoform P14416-2): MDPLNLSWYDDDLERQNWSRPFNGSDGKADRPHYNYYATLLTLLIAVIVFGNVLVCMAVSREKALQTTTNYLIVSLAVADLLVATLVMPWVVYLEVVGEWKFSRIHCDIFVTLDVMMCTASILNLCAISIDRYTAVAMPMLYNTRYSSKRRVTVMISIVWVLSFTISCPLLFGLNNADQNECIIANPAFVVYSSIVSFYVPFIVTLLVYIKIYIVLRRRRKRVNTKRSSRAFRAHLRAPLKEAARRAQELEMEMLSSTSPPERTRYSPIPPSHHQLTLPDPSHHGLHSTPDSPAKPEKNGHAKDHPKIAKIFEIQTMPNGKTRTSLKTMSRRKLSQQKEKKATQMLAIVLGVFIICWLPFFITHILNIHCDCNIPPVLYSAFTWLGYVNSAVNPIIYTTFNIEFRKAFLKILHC

[4] = tested on: BB (non-selective); test: BB receptor (non-selective) binding; settings: [^125I][Tyr^4]bombesin, Rat cerebral cortex
[5] = target: A1 (Homo sapiens, UniProt P30542); test: Adenosine receptor A1 binding; settings: [^3H]DPCPX, Human recombinant CHO cells, read-out: CR6086 Activity at 10µM
[6] = target: 5-HT2C (Homo sapiens, UniProt P28335); test: Serotonin receptor 5-HT2C binding; settings: [^3H]mesulergine, Human recombinant HEK-293 cells, read-out: CR6086 Activity at 10µM
Sequence of 5-HT2C (P28335 33-458): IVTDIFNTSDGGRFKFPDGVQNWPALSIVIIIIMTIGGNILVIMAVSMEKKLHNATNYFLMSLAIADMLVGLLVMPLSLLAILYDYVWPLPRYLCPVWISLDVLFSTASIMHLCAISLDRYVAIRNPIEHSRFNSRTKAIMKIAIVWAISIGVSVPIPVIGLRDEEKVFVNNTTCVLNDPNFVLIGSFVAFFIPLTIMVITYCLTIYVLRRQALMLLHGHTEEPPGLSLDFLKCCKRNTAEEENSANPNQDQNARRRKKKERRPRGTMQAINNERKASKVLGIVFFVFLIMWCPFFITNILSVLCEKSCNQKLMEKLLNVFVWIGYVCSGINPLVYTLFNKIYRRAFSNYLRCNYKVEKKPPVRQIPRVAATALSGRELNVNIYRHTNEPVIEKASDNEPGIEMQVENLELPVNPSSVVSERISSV

[7] = tested on: Cl^- channel (GABA-gated); test: Ion channel Cl- (GABA-gated) binding; settings: [^35S]TBPS, Rat cerebral cortex
[8] = target: AT1 (Homo sapiens, UniProt P30556); test: Angiotensin receptor AT1 binding; settings: [^125I][Sar^1, IIe^8]-AT-II, Human recombinant HEK-293 cells, read-out: CR6086 Activity at 10µM
Sequence of AT1 (P30556 whole entry): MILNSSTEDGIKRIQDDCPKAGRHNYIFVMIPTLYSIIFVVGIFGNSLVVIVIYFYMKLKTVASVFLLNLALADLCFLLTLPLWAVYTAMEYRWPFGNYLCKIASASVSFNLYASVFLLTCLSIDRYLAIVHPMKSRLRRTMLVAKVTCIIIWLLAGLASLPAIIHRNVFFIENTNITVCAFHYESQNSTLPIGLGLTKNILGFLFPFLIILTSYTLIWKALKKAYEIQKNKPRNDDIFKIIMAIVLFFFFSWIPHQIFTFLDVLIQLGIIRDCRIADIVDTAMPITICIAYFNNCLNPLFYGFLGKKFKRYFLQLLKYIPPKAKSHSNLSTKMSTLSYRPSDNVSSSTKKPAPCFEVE

[9] = target: NK3 (Homo sapiens, UniProt P29371); test: Neurokinin receptor NK3 binding; settings: [^3H]SR 142801, Human recombinant CHO cells, read-out: CR6086 Activity at 10µM
Sequence of NK3 (P29371 whole entry): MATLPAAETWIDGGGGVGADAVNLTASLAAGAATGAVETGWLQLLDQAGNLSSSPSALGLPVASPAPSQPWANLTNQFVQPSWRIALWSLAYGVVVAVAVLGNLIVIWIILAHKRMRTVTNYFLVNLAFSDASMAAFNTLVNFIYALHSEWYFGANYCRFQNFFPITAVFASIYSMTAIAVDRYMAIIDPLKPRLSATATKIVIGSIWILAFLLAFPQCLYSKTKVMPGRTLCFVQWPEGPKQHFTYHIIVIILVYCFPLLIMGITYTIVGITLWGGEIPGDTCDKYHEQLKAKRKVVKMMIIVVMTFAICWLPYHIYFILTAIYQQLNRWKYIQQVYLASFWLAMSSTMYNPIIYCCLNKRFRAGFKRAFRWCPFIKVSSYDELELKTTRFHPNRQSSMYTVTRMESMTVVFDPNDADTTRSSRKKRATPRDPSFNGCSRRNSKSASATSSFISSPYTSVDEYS

[10] = tested on: σ (non-selective); test: σ receptor (non-selective) binding; settings: [^3H]DTG, Rat cerebral cortex
[11] = tested on: α2 (non-selective); test: Adrenergic receptor α2 binding; settings: [^3H]RX 821002, Rat cerebral cortex
[12] = tested on: arthritic mice (collagen-induced arthritis model); test: FACS analysis of cell populations in the joint, CIA mice; type: in vivo, mouse; settings: CR6086 60 mg/kg, naproxen 60 mg/kg, etanercept 10 mg/kg, mean ± SEM
Description: In a first study, mice were randomised into the following treatment groups: vehicle, 30 mg/kg CR6086, 60 mg/kg CR6086, 60 mg/kg naproxen and 10 mg/kg etanercept. Animals received the test drugs for 10 days. CR6086 and naproxen were administered orally once daily, whereas etanercept was administered intraperitoneally every other day. Animals treated with vehicle, 60 mg/kg CR6086, naproxen and etanercept were additionally analysed for the proportion of populations of Th17 cells, Th1 cells, regulatory T cells, B cells, macrophages, neutrophils and dendritic cells by fluorescence-activated cell sorting (FACS) after collection of blood, draining lymph nodes and joints.

[13] = target: CCR1 (Homo sapiens, UniProt P32246); test: CCR1 receptor binding; settings: [^125I]MIP-1α, Human recombinant HEK-293 cells, read-out: CR6086 Activity at 10µM
[14] = target: κ (KOP) (Homo sapiens, UniProt P41145); test: Opioid receptor κ (KOP) binding; settings: [^3H]U 69593, Human recombinant CHO cells, read-out: CR6086 Activity at 10µM
Sequence of κ (KOP) (P41145 whole entry): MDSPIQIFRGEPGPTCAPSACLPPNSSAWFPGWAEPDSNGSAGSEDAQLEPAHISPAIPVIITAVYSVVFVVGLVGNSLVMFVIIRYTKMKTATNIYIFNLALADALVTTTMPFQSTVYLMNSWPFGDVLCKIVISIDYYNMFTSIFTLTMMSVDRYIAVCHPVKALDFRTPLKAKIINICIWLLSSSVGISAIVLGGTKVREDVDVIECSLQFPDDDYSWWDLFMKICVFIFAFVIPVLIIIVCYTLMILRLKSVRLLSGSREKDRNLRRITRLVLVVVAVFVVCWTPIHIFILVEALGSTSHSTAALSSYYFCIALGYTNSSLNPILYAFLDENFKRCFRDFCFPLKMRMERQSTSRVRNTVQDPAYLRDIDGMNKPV

[15] = target: Dopamine transporter (Homo sapiens, UniProt Q01959); test: Dopamine transporter binding; settings: [^3H]BTCP, Human recombinant CHO cells, read-out: CR6086 Activity at 10µM
[16] = target: T2, human EP4 receptor (Homo sapiens, UniProt P35408); test: AlphaScreen cAMP functional assay, PGE2-stimulated HEK293 membranes; type: biochemical
T2 construct: expressed in transfected cells
T2 sequence (P35408 whole entry): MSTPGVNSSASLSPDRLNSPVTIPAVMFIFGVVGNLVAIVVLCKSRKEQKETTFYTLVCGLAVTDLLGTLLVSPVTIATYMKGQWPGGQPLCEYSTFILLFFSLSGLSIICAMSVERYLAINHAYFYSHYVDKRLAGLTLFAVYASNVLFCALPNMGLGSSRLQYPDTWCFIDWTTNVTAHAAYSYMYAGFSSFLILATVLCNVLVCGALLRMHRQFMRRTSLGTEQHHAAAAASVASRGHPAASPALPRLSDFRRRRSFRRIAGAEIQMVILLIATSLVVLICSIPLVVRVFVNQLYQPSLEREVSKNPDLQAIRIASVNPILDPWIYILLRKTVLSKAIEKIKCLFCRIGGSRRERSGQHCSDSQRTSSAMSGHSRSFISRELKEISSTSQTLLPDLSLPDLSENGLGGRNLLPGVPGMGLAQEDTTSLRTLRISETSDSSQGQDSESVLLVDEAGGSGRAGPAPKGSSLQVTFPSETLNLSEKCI
Description: In studies of CR6086 as a functional receptor antagonist, we took advantage of the evidence that activated EP4 receptors couple with Gs proteins to stimulate adenylyl cyclase and increase cyclic adenosine monophosphate (cAMP) cellular levels. Cell membranes prepared from the HEK293 cell line were suspended in 1 ml of stimulation buffer (Hanks’ balanced salt solution 1× + BSA 0.1% + 3-isobutyl-1-methylxanthine 0.5 mM + HEPES 5 mM + MgCl2 10 mM + guanosine triphosphate 1 nM + guanosine diphosphate 10 μM + adenosine triphosphate 100 μM, pH 7.4). The AlphaScreen cAMP functional assay (PerkinElmer) was used according to the manufacturer’s instructions. Because AlphaScreen beads are light-sensitive, the cAMP assay was performed under subdued laboratory lighting, and any incubation involving the beads was carried out in the dark. The assay is based on the competition between endogenous cAMP and exogenously added biotinylated cAMP. The capture of cAMP is achieved by using a specific antibody conjugated to […]. Cell membranes were dispensed into white 384-well microplates at a final concentration of 1 μg per well. […] After 1 h of incubation, the plate was read using the EnVision platform (PerkinElmer) to determine the cAMP level (excitation 680 nm, emission 520 or 620 nm). […]

[17] = target: H2 (Homo sapiens, UniProt P25021); test: Histamine receptor H2 binding; settings: [^125I]APT, Human recombinant CHO cells, read-out: CR6086 Activity at 10µM
Sequence of H2 (P25021 whole entry): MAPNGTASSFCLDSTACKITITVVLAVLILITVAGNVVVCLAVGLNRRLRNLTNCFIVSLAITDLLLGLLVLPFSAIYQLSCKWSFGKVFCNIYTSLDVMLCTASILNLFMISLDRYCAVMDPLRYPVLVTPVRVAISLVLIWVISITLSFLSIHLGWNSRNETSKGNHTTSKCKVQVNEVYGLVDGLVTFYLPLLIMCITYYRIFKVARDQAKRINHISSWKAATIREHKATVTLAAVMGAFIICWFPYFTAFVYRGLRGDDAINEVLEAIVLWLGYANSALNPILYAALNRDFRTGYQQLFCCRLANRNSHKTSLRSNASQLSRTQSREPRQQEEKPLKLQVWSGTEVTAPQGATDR

[18] = target: H1 (Homo sapiens, UniProt P35367); test: Histamine receptor H1 binding; settings: [^3H]pyrilamine, Human recombinant HEK-293 cells, read-out: CR6086 Activity at 10µM
Sequence of H1 (P35367 whole entry): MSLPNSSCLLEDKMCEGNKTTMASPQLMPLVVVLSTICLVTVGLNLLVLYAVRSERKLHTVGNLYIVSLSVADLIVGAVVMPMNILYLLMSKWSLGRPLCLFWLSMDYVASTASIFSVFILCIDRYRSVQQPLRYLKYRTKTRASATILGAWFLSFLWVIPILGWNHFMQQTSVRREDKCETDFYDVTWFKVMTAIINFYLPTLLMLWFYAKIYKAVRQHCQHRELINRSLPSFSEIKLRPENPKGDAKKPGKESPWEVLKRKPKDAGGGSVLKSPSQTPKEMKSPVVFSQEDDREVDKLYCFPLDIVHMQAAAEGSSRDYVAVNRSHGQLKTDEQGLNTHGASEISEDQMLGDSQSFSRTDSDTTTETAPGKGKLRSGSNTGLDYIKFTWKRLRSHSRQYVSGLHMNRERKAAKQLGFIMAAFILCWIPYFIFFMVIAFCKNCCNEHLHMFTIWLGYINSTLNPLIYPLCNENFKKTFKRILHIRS

[19] = target: M5 (Homo sapiens, UniProt P08912); test: Muscarinic acetylcholine receptor M5 binding; settings: [^3H]4-DAMP, Human recombinant CHO cells, read-out: CR6086 Activity at 10µM
Sequence of M5 (P08912 whole entry): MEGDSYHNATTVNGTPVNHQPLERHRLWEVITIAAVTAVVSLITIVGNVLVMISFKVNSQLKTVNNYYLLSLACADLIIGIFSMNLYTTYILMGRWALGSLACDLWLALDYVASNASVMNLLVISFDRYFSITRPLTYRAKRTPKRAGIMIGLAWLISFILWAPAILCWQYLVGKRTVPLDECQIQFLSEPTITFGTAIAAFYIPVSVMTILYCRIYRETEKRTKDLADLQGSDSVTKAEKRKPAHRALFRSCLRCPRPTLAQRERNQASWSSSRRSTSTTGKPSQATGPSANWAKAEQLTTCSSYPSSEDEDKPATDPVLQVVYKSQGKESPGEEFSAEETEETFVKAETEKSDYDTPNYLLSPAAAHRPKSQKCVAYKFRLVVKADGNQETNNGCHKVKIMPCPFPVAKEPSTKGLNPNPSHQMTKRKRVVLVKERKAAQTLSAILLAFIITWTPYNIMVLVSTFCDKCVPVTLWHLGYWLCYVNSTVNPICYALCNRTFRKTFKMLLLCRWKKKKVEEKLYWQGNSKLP

Sequence of MT1 (ML1A) (P48039 whole entry): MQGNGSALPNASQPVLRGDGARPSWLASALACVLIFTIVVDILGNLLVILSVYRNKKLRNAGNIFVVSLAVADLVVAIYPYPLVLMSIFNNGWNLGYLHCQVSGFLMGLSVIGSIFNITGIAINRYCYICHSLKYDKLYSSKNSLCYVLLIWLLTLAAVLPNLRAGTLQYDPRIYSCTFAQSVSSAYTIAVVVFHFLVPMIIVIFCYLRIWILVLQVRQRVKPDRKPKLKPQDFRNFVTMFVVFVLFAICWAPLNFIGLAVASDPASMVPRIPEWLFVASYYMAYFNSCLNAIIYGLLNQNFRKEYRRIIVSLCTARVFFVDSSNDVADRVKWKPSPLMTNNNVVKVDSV

O=C([O-])c1ccc(C2(NC(=O)[C@H]3CC4(CCN3Cc3ccc(C(F)(F)F)cc3)CC4)CC2)cc1.[Na+] [CR6086, Sodium (R)-4-(1-(6-(4-(trifluoromethyl)benzyl)-6-azaspiro[2.5]octane-5-carboxamido)cyclopropyl)benzoate]
inhibition at 10 µM [1]: < 20% | inhibition at 10 µM [2]: < 20% | inhibition at 10 µM [3]: < 20% | CR6086 Activity at 10µM [4]: IN (IN = < 20% displacement or inhibition (all tables)) | inhibition at 10 µM [5]: < 20% | inhibition at 10 µM [6]: < 20% | CR6086 Activity at 10µM [7]: IN (IN = < 20% displacement or inhibition (all tables)) | inhibition at 10 µM [8]: < 20% | inhibition at 10 µM [9]: < 20% | CR6086 Activity at 10µM [10]: IN (IN = < 20% displacement or inhibition (all tables)) | CR6086 Activity at 10µM [11]: IN (IN = < 20% displacement or inhibition (all tables)) | B cells, Percentage of total cells [12]: 6.65 ± 0.72% | Dendritic cells, Percentage of total cells [12]: 1.72 ± 0.44% | Macrophages, Percentage of total cells [12]: 11.14 ± 2.93^a % | Neutrophils, Percentage of total cells [12]: 9.98 ± 2.89^a % | Th1, Percentage of total cells [12]: 0.14 ± 0.03^b % | Th17, Percentage of total cells [12]: 0.06 ± 0.01^b % | Treg, Percentage of total cells [12]: 0.38 ± 0.12% | inhibition at 10 µM [13]: < 20% | inhibition at 10 µM [14]: < 20% | inhibition at 10 µM [15]: < 20% | IC50 ([16]; 3 nM PGE2, HEK293 membranes, read-out: IC50 on PGE2-stimulated cAMP production): 22 nM | functional behaviour ([16]; cAMP functional assays): pure EP4 antagonist | inhibition at 10 µM [17]: < 20% | inhibition at 10 µM [18]: < 20% | inhibition at 10 µM [19]: < 20%
